Data on 27 compounds can be found in patent publication US11407749B2, “Heterocyclic compounds as immunomodulators” (Incyte Corporation, priority 2015, dated 2022).

What is called IC50 is the midpoint of a concentration-inhibition curve.

SMILES strings stand for the structures.

In this assay the target is PD-1/PD-L1 protein/protein interaction (Homo sapiens (Human), UniProt Q9NZQ7). In words: PD-1/PD-L1 Homogeneous Time-Resolved Fluorescence (HTRF) Binding Assay. Particulars: recombinant human PD-L1 (19-238)-His and PD-1 (25-167)-Fc, 25° C., PBS pH 7.4. On the procedure: Example A. PD-1/PD-L1 Homogeneous Time-Resolved Fluorescence (HTRF) Binding Assay
PD-1/PD-L1 protein/protein interaction, sequence (Q9NZQ7 19-238): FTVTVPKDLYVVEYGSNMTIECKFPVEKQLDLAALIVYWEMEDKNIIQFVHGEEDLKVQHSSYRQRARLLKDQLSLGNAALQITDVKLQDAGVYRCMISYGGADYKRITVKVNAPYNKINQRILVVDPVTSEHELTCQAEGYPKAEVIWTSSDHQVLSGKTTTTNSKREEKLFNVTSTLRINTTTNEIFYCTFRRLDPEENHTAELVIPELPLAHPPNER
The assays were conducted in a standard black 384-well polystyrene plate with a final volume of 20 μL. Inhibitors were first serially diluted in DMSO and then added to the plate wells before the addition of other reaction components. The final concentration of DMSO in the assay was 1%. The assays were carried out at 25° C. in the PBS buffer (pH 7.4) with 0.05% Tween-20 and 0.1% BSA. Recombinant human PD-L1 protein (19-238) with a His-tag at the C-terminus was purchased from AcroBiosystems (PD1-H5229). Recombinant human PD-1 protein (25-167) with Fc tag at the C-terminus was also purchased from AcroBiosystems (PD1-H5257). PD-L1 and PD-1 proteins were diluted in the assay buffer and 10 μL was added to the plate well. Plates were centrifuged and proteins were preincubated with inhibitors for 40 minutes. The incubation was followed by the addition of 10 μL of HTRF detection buffer supplemented with Europium cryptate-labeled anti-human IgG (PerkinElmer-AD0212) specific for Fc and anti-His antibody conjugated to SureLight®-Allophycocyanin (APC, PerkinElmer-AD0059H). After centrifugation, the plate was incubated at 25° C. for 60 min. before reading on a PHERAstar FS plate reader (665 nm/620 nm ratio). Final concentrations in the assay were […], 10 nM PD-L1, 1 nM europium anti-human IgG and 20 nM anti-His-Allophycocyanin. IC50 determination was performed by fitting the curve of percent control activity versus the log of the inhibitor concentration using the GraphPad Prism 5.0 software.
In general terms: Time-resolved FRET reads energy transfer from a long-lived donor to a nearby acceptor.
As for `Cc1c(-c2ccccc2)cccc1-c1cn2nc(CNCCO)cnc2n1` [Example 5, 2-((6-(2-methylbiphenyl-3-yl)imidazo[1,2-b][1,2,4]triazin-2-yl)methylamino)ethanol], the IC50 was at most 100 nM.

On to `Cc1c(-c2ccccc2)cccc1-c1cc2cc(CNCCO)ccn2c1` [Example 2, 2-({[2-(2-methylbiphenyl-3-yl)indolizin-7-yl]methyl}amino)ethanol], for which the 50% inhibitory concentration (IC50) fell in the range of 100 to 500 nM.

As to `Cc1c(-c2ccccc2)cccc1-c1nc2cc(CNCCO)nc(C)n2n1` [Example 20, 2-({[5-methyl-2-(2-methylbiphenyl-3-yl)[1,2,4]triazolo[1,5-c]pyrimidin-7-yl]methyl}amino)ethanol], the IC50 was at most 100 nM.

Take `Cc1c(-c2ccccc2)cccc1-c1nc2ccc(CN3CCCC[C@H]3C(=O)O)cn2n1` [Example 19, (2S)-1-{[2-(2-methylbiphenyl-3-yl)[1,2,4]triazolo[1,5-a]pyridin-6-yl]methyl}piperidine-2-carboxylic acid]: the IC50 was 100 to 500 nM.

Regarding `Cc1c(-c2ccccc2)cccc1-c1cn2cc(CNCCO)cnc2n1` [Example 12, 2-({[2-(2-methylbiphenyl-3-yl)imidazo[1,2-a]pyrimidin-6-yl]methyl}amino)ethanol], the IC50 lay in the range of 100 to 500 nM.

For the compound `Cc1c(-c2ccccc2)cccc1-c1cn2cc(CNCCO)ncc2n1` [Example 13, 2-({[2-(2-methylbiphenyl-3-yl)imidazo[1,2-a]pyrazin-6-yl]methyl}amino)ethanol], the IC50 is at most 100 nM.

Turning to `Cc1c(-c2ccccc2)cccc1-c1cn2cc(CN3CCCC[C@H]3C(=O)O)cc(C)c2n1` [Example 10, (S)-1-((8-methyl-2-(2-methylbiphenyl-3-yl)imidazo[1,2-a]pyridin-6-yl)methyl)piperidine-2-carboxylic acid], the IC50 lay in the range of 100 to 500 nM.

On to `N#CCc1cc(CNCCO)cn2nc(-c3cccc(-c4ccc5c(c4)OCCO5)c3C#N)nc12` [Example 27, 2-(8-(cyanomethyl)-6-{[(2-hydroxyethyl)amino]methyl}[1,2,4]triazolo[1,5-a]pyridin-2-yl)-6-(2,3-dihydro-1,4-benzodioxin-6-yl)benzonitrile], for which the IC50 is at most 100 nM.

Consider `Cc1c(-c2ccccc2)cccc1-c1cn2cc(CNCCO)cc(C)c2n1` [Example 9, 2-((8-methyl-2-(2-methylbiphenyl-3-yl)imidazo[1,2-a]pyridin-6-yl)methylamino)ethanol], for which the IC50 was in the range of 100 to 500 nM.

Take `N#Cc1c(-c2ccc3c(c2)OCCO3)cccc1-c1nc2c(C#N)cc(CNCCO)cn2n1` [Example 26, 2-[2-cyano-3-(2,3-dihydro-1,4-benzodioxin-6-yl)phenyl]-6-{[(2-hydroxyethyl)amino]methyl}[1,2,4]triazolo[1,5-a]pyridine-8-carbonitrile]: the IC50 was at most 100 nM.

For `Cc1c(-c2ccccc2)cccc1-c1cn2nc(CNCC(N)=O)cnc2n1` [Example 7, 2-((6-(2-methylbiphenyl-3-yl)imidazo[1,2-b][1,2,4]triazin-2-yl)methylamino)acetamide], the IC50 lay in the range of 100 to 500 nM.

Turning to `Cc1c(-c2ccccc2)cccc1-c1cc2cc(CN3CCCC[C@H]3C(=O)O)ccn2c1` [Example 3, (2S)-1-{[2-(2-methylbiphenyl-3-yl)indolizin-7-yl]methyl}piperidine-2-carboxylic acid], the half-maximal inhibitory concentration (IC50) was in the range of 100 to 500 nM.

With `Cc1c(-c2ccccc2)cccc1-c1nc2ccc(CNCCO)cn2n1` [Example 18, 2-({[2-(2-methylbiphenyl-3-yl)[1,2,4]triazolo[1,5-a]pyridin-6-yl]methyl}amino)ethanol], the IC50 was at most 100 nM.

In the case of `Cc1c(-c2ccccc2)cccc1-c1nc2cc(CN3CCCC[C@H]3C(=O)O)ccn2n1` [Example 17, (2S)-1-{[2-(2-methylbiphenyl-3-yl)[1,2,4]triazolo[1,5-a]pyridin-7-yl]methyl}piperidine-2-carboxylic acid], the IC50 was in the range of 100 to 500 nM.

For the compound `Cc1c(-c2ccccc2)cccc1-c1cn2nc(CNCC#N)cnc2n1` [Example 6, 2-((6-(2-methylbiphenyl-3-yl)imidazo[1,2-b][1,2,4]triazin-2-yl)methylamino)acetonitrile], the IC50 was 100 to 500 nM.

`Cc1c(-c2ccccc2)cccc1-c1nc2c(CC#N)cc(CNCCO)cn2n1` [Example 24, [6-{[(2-hydroxyethyl)amino]methyl}-2-(2-methylbiphenyl-3-yl)[1,2,4]triazolo[1,5-a]pyridin-8-yl]acetonitrile]: the IC50 was at most 100 nM.

As for `Cc1c(-c2ccccc2)cccc1-c1cc2cc(CN3CCCC[C@H]3C(=O)O)ncn2c1` [Example 4, (2S)-1-{[6-(2-methylbiphenyl-3-yl)pyrrolo[1,2-c]pyrimidin-3-yl]methyl}piperidine-2-carboxylic acid], the IC50 lay within 500 to 10000 nM.

On to `Cc1c(-c2ccccc2)cccc1-c1cn2nc(CN(C)CCO)cnc2n1` [Example 8, 2-(methyl((6-(2-methylbiphenyl-3-yl)imidazo[1,2-b][1,2,4]triazin-2-yl)methyl)amino)ethanol], for which the IC50 is 100 to 500 nM.

Take `Cc1c(-c2ccccc2)cccc1-c1nc2c(Cl)cc(CNCCO)cn2n1` [Example 21, 2-({[8-chloro-2-(2-methylbiphenyl-3-yl)-[1,2,4]triazolo[1,5-a]pyridin-6-yl]methyl}amino)ethanol]: the IC50 is at most 100 nM.

As to `COCCNc1cc(CNCCO)cn2nc(-c3cccc(-c4ccccc4)c3C)nc12` [Example 22, 2-({[8-[(2-methoxyethyl)amino]-2-(2-methylbiphenyl-3-yl)[1,2,4]triazolo[1,5-a]pyridin-6-yl]methyl}amino)ethanol], the IC50 fell in the range of 100 to 500 nM.

Consider `Cc1c(-c2ccccc2)cccc1-c1cn2cc(CNCCO)ccc2n1` [Example 1, 2-({[2-(2-methylbiphenyl-3-yl)imidazo[1,2-a]pyridin-6-yl]methyl}amino)ethanol], for which the IC50 lay in the range of 100 to 500 nM.

On to `Cc1c(-c2ccccc2)cccc1-c1cn2nc(CNCCO)ccc2n1` [Example 15, 2-({[2-(2-methylbiphenyl-3-yl)imidazo[1,2-b]pyridazin-6-yl]methyl}amino)ethanol], for which the IC50 lay within 100 to 500 nM.

As for `Cc1c(-c2ccccc2)cccc1-c1nc2c(CCCC#N)cc(CNCCO)cn2n1` [Example 23, 4-[6-{[(2-hydroxyethyl)amino]methyl}-2-(2-methylbiphenyl-3-yl)[1,2,4]triazolo[1,5-a]pyridin-8-yl]butanenitrile], the IC50 was at most 100 nM.

In the case of `Cc1c(-c2ccccc2)cccc1-c1cn2cc(CNCCO)cc(Cl)c2n1` [Example 11, 2-((8-chloro-2-(2-methylbiphenyl-3-yl)imidazo[1,2-a]pyridin-6-yl)methylamino)ethanol], the IC50 was 100 to 500 nM.

On to `N#Cc1c(-c2ccc3c(c2)OCCO3)cccc1-c1nc2c(Cl)cc(CNCCO)cn2n1` [Example 25, 2-(8-chloro-6-{[(2-hydroxyethyl)amino]methyl}[1,2,4]triazolo[1,5-a]pyridin-2-yl)-6-(2,3-dihydro-1,4-benzodioxin-6-yl)benzonitrile], for which the IC50 is at most 100 nM.

In the case of `Cc1c(-c2ccccc2)cccc1-c1nc2cc(CNCCO)ccn2n1` [Example 16, 2-({[2-(2-methylbiphenyl-3-yl)[1,2,4]triazolo[1,5-a]pyridin-7-yl]methyl}amino)ethanol], the IC50 was at most 100 nM.

Regarding `Cc1c(-c2ccccc2)cccc1-c1cn2nc(CN3CCCC[C@H]3C(=O)O)ccc2n1` [Example 14, (S)-1-((2-(2-methylbiphenyl-3-yl)imidazo[1,2-b]pyridazin-6-yl)methyl)piperidine-2-carboxylic acid], the IC50 fell in the range of 500 to 10000 nM.
